Laboratory results reported in patent US11448654B2, “Protein-protein interaction assessed by detecting localized coiled coil subunits” (The Regents of the University of California, priority 2017, dated 2022).

How the values were obtained:
[1] = target: T1, interaction between CRBN and GSPT1 (Homo sapiens, UniProt P15170+Q96SW2); test: SPARK reporter CRBN-EGFP-HOTag3 / GSPT1-HOTag6 in HEK293 cells; assay type: cell-based; conditions: time-lapse imaging
T1 construct: expressed in transfected cells; host or cells: HEK293
T1 sequence (Q96SW2 whole entry): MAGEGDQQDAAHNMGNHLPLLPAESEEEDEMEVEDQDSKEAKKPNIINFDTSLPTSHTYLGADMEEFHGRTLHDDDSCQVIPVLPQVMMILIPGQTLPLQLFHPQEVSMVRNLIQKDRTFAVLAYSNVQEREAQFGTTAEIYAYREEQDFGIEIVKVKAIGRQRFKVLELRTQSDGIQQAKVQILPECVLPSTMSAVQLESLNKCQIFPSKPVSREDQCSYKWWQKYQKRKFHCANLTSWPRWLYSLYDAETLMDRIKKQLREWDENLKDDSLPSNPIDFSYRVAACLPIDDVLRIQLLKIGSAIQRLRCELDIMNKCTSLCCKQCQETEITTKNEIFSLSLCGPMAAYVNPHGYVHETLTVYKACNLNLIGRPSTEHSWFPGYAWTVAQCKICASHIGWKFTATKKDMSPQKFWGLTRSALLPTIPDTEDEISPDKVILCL
T1 sequence (P15170 whole entry): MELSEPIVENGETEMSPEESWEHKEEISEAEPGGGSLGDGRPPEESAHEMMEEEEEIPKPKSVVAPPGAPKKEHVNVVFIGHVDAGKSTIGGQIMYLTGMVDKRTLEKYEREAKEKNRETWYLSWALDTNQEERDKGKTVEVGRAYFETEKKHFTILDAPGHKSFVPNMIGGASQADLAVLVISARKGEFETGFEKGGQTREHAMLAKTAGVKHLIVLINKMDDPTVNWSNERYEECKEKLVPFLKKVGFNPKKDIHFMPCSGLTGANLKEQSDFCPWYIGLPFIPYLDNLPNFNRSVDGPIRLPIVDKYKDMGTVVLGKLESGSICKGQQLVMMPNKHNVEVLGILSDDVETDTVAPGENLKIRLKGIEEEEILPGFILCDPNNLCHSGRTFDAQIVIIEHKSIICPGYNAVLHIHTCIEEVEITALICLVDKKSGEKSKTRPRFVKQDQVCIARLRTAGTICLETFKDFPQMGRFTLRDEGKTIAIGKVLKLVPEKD
From the text: Many analogs and derivatives of IMiDs have recently been designed and explored as drug leads. […] To examine whether SPARK can detect CC-885 induced protein-protein interactions, HOTag6 was genetically fused to GSPT1 and co-expressed with CRBN-EGFP-HOTag3 in HEK293 cells. […] Thus, SPARK also detects CC-885 induced protein-protein interactions.

[2] = tested on: protein kinase A (PKA) activity; test: PKA-SPARK phase separation kinase reporter in HEK293 cells; assay type: cell-based, human; conditions: for effect of pre-incubation on isoprenaline-induced droplet formation / PKA-SPARK signal: HEK293 cells, pre-incubation before isoprenaline
From the text: To design a SPARK-based PKA, reporter (named PKA-SPARK), a consensus peptide sequence was utilized that is specifically phosphorylated by PKA, as described in Durocher et al., (2000). The molecular basis of FHA domain: phosphopeptide binding specificity and implications for phospho-dependent signaling mechanisms. Mol Cell 6, 1169-1182. To introduce PKA activity-dependent PPI, forkhead-associated domain 1 (FHA1) was sued, which is a phosphothreonine binding domain. […] These two fusion sequences were connected by a “self-cleaving” 2A sequence. The rationale was that substrate and the FHA1 would induce PKA activity-dependent protein-protein interaction, the two HOTags introduce multivalency; and upon PKA activation, multivalent protein-protein interactions would be induced, leading to phase separation and formation of EGFP droplets.
To test the construct, the β-adrenergic agonist isoprenaline was added to HEK293 cells that endogenously express β-adrenergic receptors (βAR). βAR activation induces GDP for GTP exchange in the heteratrimeric G protein Gs, and GTP-bound Gαs activates adenylyl cyclase (AC), which converts ATP into cAMP that activates PKA. […] In order to confirm that the phase separation results from phosphorylation of PKA-SPARK at the expected threonine residue, we changed the threonine to alanine in the PKA substrate sequence.
Next it was tested whether phase separation of the reporter is reversible, i.e. whether the EGFP droplets would disassemble or dissolve when PKA is inactivated. Cells were pre-incubated with isoprenaline to induce phase separation, then isoprenaline was removed and H89 added to inactivate PKA. […] As a control, the EGFP droplets were stable over time in the cells with removal of isoprenaline but addition of medium without H89. […] To examine whether PKA-SPARK could quantitatively measure the droplets' disassembly over time after PKA inhibition, we defined “SPARK signal” as the sum of fluorescent droplets' pixel intensity divided by sum of cells' pixel intensity. Upon addition of H89, the SPARK signal decreased over time. In contrast, for the control the SPARK signal remained constant over time.
Time-lapse fluorescence imaging of PKA-SPARK was performed at 10 seconds per frame. […] PKA activation upon addition of isoprenaline was confirmed by AKAR2 reporter. Small droplets of PKA-SPARK were detected as early as at 20 seconds upon addition of isoprenaline. The quick activation of PKA is consistent with rapid activation of the βAR-cAMP-PKA pathway. The small droplets grew quickly and coalesced into large and intensively fluorescent droplets, which were up to 10-fold brighter than the cellular fluorescence before PKA activation. […] Therefore, PKA-SPARK achieves up to 10-fold fluorescence increase, compared to prior art AKAR2 and PKA-KTR reporters, which have ˜10% and ˜30% fluorescence ratio change, respectively. […] The results also verified that PKA-SPARK could detect PKA activity over a wide range of reporter expression. Lastly the concentration of PKA-SPARK (2-10 μM) appeared to have no effect on kinetics of droplet assembly and disassembly.
In additional experiments, PKA was activated via the G-coupled GPCR βAR. Isoprenaline was added to activate endogenous βARs in HEK293 cells.

ERK activity = test: ERK-SPARK phase separation kinase reporter in HEK293 cells; conditions: for effect of pre-incubation on phase separation of ERK-SPARK upon addition of EGF: HEK293 cells, pre-incubation before EGF
From the text: To determine whether the SPARK design generalizes, the highly conserved kinase ERK was utilized in a second pair of reporter fusion proteins. To design a SPARK-based ERK reporter (ERK-SPARK), the ERK activity-sensing motifs that were used for previous FRET-based ERK reporters were employed. One of the ERK activity-sensing motifs is a phosphopeptide sequence from Cdc25C, followed by an ERK-specific docking site that determines substrate specificity. The companion fragment is a WW domain that binds the phosphorylated substrate. The ERK substrate sequence was fused to EGFP followed by HOTag3, and the WW domain was fused to EGFP followed by HOTag6. The two fusions were connected by a “self-cleaving” 2A sequence. The pair of reporter fusion proteins was expressed in HEK293 cells exposed to epidermal growth factor (EGF). EGF binds the EGF receptor, resulting in ERK activation. […] Because the ERK docking site was previously shown to be critical for ERK recognition and binding to substrate, a reporter lacking the 4-amino-acid docking site was generated.
To investigate whether ERK-SPARK could detect GPCR-induced ERK activity, a hexapeptide full agonist for protease-activated receptor-1 was added to HEK293 cells.

PKA activity = test: PKA-SPARK in zebrafish embryo muscle cells; assay type: in vivo; conditions: 24 hrs APF, upon addition of isoprenaline

Cc1ccc(NC(=O)NCc2ccc3c(c2)CN(C2CCC(=O)NC2=O)C3=O)cc1Cl (centres unmarked) [CC-885]
droplet formation (punctal green fluorescence) upon addition [1]: intensely bright and punctal green fluorescence

O=S(=O)(NCCNC/C=C/c1ccc(Br)cc1)c1cccc2cnccc12 [H89]
effect of pre-incubation on isoprenaline-induced droplet formation / PKA-SPARK signal [2]: abolished isoprenaline-induced droplet formation
EGFP droplet disassembly when PKA is inactivated ([2]; cells pre-incubated with isoprenaline, isoprenaline removed, H89 added): EGFP droplets disassembled rapidly

O=C(NOC[C@H](O)CO)c1ccc(F)c(F)c1Nc1ccc(I)cc1F [PD 0325901]
effect of pre-incubation on phase separation of ERK-SPARK upon addition of EGF (ERK activity): abolished phase separation

C[S+]([O-])c1ccc(-c2nc(-c3ccncc3)c(-c3ccc(F)cc3)[nH]2)cc1 (centres unmarked) [SB 203580]
effect of pre-incubation on phase separation of ERK-SPARK upon addition of EGF (ERK activity): did not abolish formation of EGFP droplets

COc1ccccc1OCCNCC(O)COc1cccc2[nH]c3ccccc3c12 (centres unmarked) [carvedilol]
effect of pre-incubation on isoprenaline-induced droplet formation / PKA-SPARK signal [2]: abolished the sustained PKA-SPARK signals

CC(C)NCC(O)c1ccc(O)c(O)c1 (centres unmarked) [isoprenaline]
persistence of EGFP droplets (sustained PKA activity) ([2]; endogenous βARs in HEK293 cells): at least 3 hrs
fluorescent droplet formation upon addition of βAR agonist ([2]; reporter-expressing HEK293 cells): fluorescent droplets formed
earliest detection of small PKA-SPARK droplets after addition ([2]; time-lapse imaging at 10 seconds per frame): 20 s
EGFP droplet formation in muscle cells (PKA activity): EGFP droplet formation

EGF: epidermal growth factor; binds the EGF receptor, resulting in ERK activation (NSDSECPLSHDGYCLHDGVCMYIEALDKYACNCVVGYIGERCQYRDLKWWELR; UniProt P01133 971-1023, looked up)
EGFP droplet formation upon addition of stimulus (ERK activity; ERK-SPARK expressing HEK293 cells): EGFP droplets formed
